The values that follow come from patent US9464106B2, “Oligonucleotides useful for detecting and analyzing nucleic acids of interest” (Exiqon A/S, priority 2002, dated 2016).

Marks after values point to notes of the source that are not given here. l = locked nucleic acid (LNA); [5mC] = 5-methylcytosine; d = 2'-deoxy (DNA) A value given as a limit tells only on which side of the number the result lay.

One data set has as its system complementary single stranded DNA (3′-ctgNatcc). Nature of the data set: Melting temperatures of DNA and LNA 8-mers containing inosine, 2,6-diaminopurine or 2-aminopurine against complementary DNA. The data set is classed as binding. The conditions noted are these: duplex 2.5 μM; 0.1M NaCl; 10 mM Na-phosphate (pH 7.0); 1 mM EDTA.
Consider 5′-GACATAGG [Entry 8], for which the “Tm of the duplex with 3′-ctgaatcc” value turned out to be 38.2 °C, the “Tm of the duplex with 3′-ctgcatcc” value was 40.6 °C, the “Tm of the duplex with 3′-ctggatcc” value worked out at 43.4 °C and the “Tm of the duplex with 3′-ctgtatcc” value was 61.6 °C.

As for 5′-GACDTAGG [Entry 11], the “Tm of the duplex with 3′-ctgaatcc” value came to 42.2 °C, the “Tm of the duplex with 3′-ctgcatcc” value was determined as 52.4 °C, the “Tm of the duplex with 3′-ctggatcc” value was 41.4 °C and the “Tm of the duplex with 3′-ctgtatcc” value came to 67.8 °C.

Take 5′-GACGTAGG [Entry 10]: the “Tm of the duplex with 3′-ctgaatcc” value is recorded as 32^b ° C, the “Tm of the duplex with 3′-ctgcatcc” value is 70.9 °C, the “Tm of the duplex with 3′-ctggatcc” value is 41^b ° C and the “Tm of the duplex with 3′-ctgtatcc” value is 55.0 °C.

On to 5′-GACITAGG [Entry 13], for which the “Tm of the duplex with 3′-ctgaatcc” value amounted to 48.2 °C, the “Tm of the duplex with 3′-ctgcatcc” value turned out to be 59.9 °C, the “Tm of the duplex with 3′-ctggatcc” value came to 43.0 °C and the “Tm of the duplex with 3′-ctgtatcc” value came to 53.1 °C.

On to 5′-GACTTAGG [Entry 9], for which the “Tm of the duplex with 3′-ctgaatcc” value came out at 60.7 °C, the “Tm of the duplex with 3′-ctgcatcc” value came to 23.5 °C, the “Tm of the duplex with 3′-ctggatcc” value turned out to be 36.4 °C and the “Tm of the duplex with 3′-ctgtatcc” value amounted to 28.0 °C.

Regarding 5′-GDCDTDGG [Entry 12], the “Tm of the duplex with 3′-ctgaatcc” value was determined as 55.9 °C, the “Tm of the duplex with 3′-ctgcatcc” value is 63.8 °C, the “Tm of the duplex with 3′-ctggatcc” value was found to be 54.7 °C and the “Tm of the duplex with 3′-ctgtatcc” value came out at 78.3 °C.

For “5′-gacatagg [Entry 1, reference compound]”, the “Tm of the duplex with 3′-ctgaatcc” value is <10 °C, the “Tm of the duplex with 3′-ctgcatcc” value is <10 °C, the “Tm of the duplex with 3′-ctggatcc” value is <10 °C and the “Tm of the duplex with 3′-ctgtatcc” value was 23.8 °C.

“5′-gacdtagg [Entry 4, reference compound]”: the “Tm of the duplex with 3′-ctgaatcc” value was <10 °C, the “Tm of the duplex with 3′-ctgcatcc” value is <10 °C, the “Tm of the duplex with 3′-ctggatcc” value is <10 °C and the “Tm of the duplex with 3′-ctgtatcc” value came to 23.3 °C.

On to “5′-gacgtagg [Entry 3, reference compound]”, for which the “Tm of the duplex with 3′-ctgaatcc” value was <10 °C, the “Tm of the duplex with 3′-ctgcatcc” value turned out to be 25.0 °C, the “Tm of the duplex with 3′-ctggatcc” value is <10 °C and the “Tm of the duplex with 3′-ctgtatcc” value is <10 °C.

In the case of “5′-gacitagg [Entry 6, reference compound]”, the “Tm of the duplex with 3′-ctgaatcc” value was <10 °C, the “Tm of the duplex with 3′-ctgcatcc” value amounted to 20.9 °C, the “Tm of the duplex with 3′-ctggatcc” value is <10 °C and the “Tm of the duplex with 3′-ctgtatcc” value is <10 °C.

For the substance “5′-gacttagg [Entry 2, reference compound]”, the “Tm of the duplex with 3′-ctgaatcc” value came to 22.6 °C, the “Tm of the duplex with 3′-ctgcatcc” value is <10 °C, the “Tm of the duplex with 3′-ctggatcc” value is <10 °C and the “Tm of the duplex with 3′-ctgtatcc” value was <10 °C.

The same data set, now with this note: entries 1 and 4.
“5′-gacdtagg [Entry 4, reference compound]”: the “destabilization of the duplex on analogous replacement in a DNA octamer” value was 0.5 °C.

Staying with this data set, now noted: entries 8 and 11.
Consider “(1R,3R,4R,7S)-7-(2-Cyanoethoxy(diisopropylamino)phosphinoxy)-1-(4,4′-dimethoxytrityloxymethyl)-3-(hyroxanthin-9-yl)-dioxabicyclo[2.2.1]heptane [compound 11]”, for which the “stabilization of the complementary duplex on replacement of one internal LNA-A by LNA-D” value amounted to 6.2 °C.

A further data set has as its system yeast HSP78 (YDR258C) sequence. Nature of the data set: Duplex melting temperatures of HSP78 25-mer capture probes (UV spectrophotometer). The conditions noted are these: 25-mer capture probe duplex with complementary target; design PM = perfectly matched, MM = single mismatch; DNA, LNA_T (T) or LNA_TC (TC) substituted.
With “12811 (DNA GCAATGGCCTCGTCTTGGCCAACGA; sugars from the 5' end d10 l1 d1 l2 d11, [5mC] at 11, 14, backbone not given here; further chemistry not fully specified) [compound 12811]”, the “Average duplex melting temp.” value stood at 79.3 °C.

On to “12812 (DNA GATGAACTCAGGTGGATAGGATCTT; sugars from the 5' end ddldddllldddldddlddddllld, all C 5-methyl, backbone not given here; further chemistry not fully specified) [compound 12812]”, for which the “Average duplex melting temp.” value worked out at 77.3 °C.

“12813 (DNA TCAGTTAGCCAATCCTTCGCTTCAT; sugars from the 5' end llddlddddlddldldlldlddldd, [5mC] at 2, 10, 15, 18, 20, 23, backbone not given here; further chemistry not fully specified) [compound 12813]”: the “Average duplex melting temp.” value was found to be 81.8 °C.

In the case of “12814 (DNA GTTGCCATGGAGTTCAAAATCTGTC; sugars from the 5' end dlddlldlddddldlddddllddld, [5mC] at 5, 6, 15, 21, backbone not given here; further chemistry not fully specified) [compound 12814]”, the “Average duplex melting temp.” value is 78.3 °C.

As to “12815 (DNA AGACGTACAGCATCAGAAATAGCAG; DNA at AG, LNA at CT, all C 5-methyl, backbone not given here; further chemistry not fully specified) [compound 12815]”, the “Average duplex melting temp.” value worked out at 81.9 °C.

“12816 (DNA TTTGGTAGCACGACAAGCTTAGTAT; sugars from the 5' end ldlddlddldlddldddldlddldd, all C 5-methyl, backbone not given here; further chemistry not fully specified) [compound 12816]”: the “Average duplex melting temp.” value was determined as 79 °C.

Take “12817 (DNA ATAAAGCTGGCAATAGGTCTCTTTT; sugars from the 5' end dlddddllddlddldddllldllld, [5mC] at 7, 11, 19, backbone not given here; further chemistry not fully specified) [compound 12817]”: the “Average duplex melting temp.” value came out at 81.2 °C.

Regarding “12818 (DNA TTTTTCGGCCAAACGATCTTGAATT; sugars from the 5' end ldldllddlldddldddldldddld, all C 5-methyl, backbone not given here; further chemistry not fully specified) [compound 12818]”, the “Average duplex melting temp.” value is 77.8 °C.

As to “12819 (DNA CACTCTAACAGTTTCGCCGTTTCTA; sugars from the 5' end ldldldddldddldddlddldllld, [5mC] at 1, 3, 5, 9, 17, 23, backbone not given here; further chemistry not fully specified) [compound 12819]”, the “Average duplex melting temp.” value was determined as 81.9 °C.

For “12820 (DNA TCAATGGCCTTGCACCATATAATTG; sugars from the 5' end llddlddldlldlddldldlddlld, [5mC] at 2, 8, 13, 16, backbone not given here; further chemistry not fully specified) [compound 12820]”, the “Average duplex melting temp.” value worked out at 83.5 °C.

With “12821 (DNA AAAACGACAGCATAAGGCTTTCTTC; sugars from the 5' end ddddlddlddldlddddlldlldld, [5mC] at 5, 8, 11, 18, 22, backbone not given here; further chemistry not fully specified) [compound 12821]”, the “Average duplex melting temp.” value stood at 79 °C.

As for “12822 (DNA ATTGACCTCAAAACTTTCTTGGATA; sugars from the 5' end dllddllllddddllldllldddld, all C 5-methyl, backbone not given here; further chemistry not fully specified) [compound 12822]”, the “Average duplex melting temp.” value was determined as 75.6 °C.

As to “12823 (DNA CCCAACTTTGTGTCGTTTAATAAAA; sugars from the 5' end llldddllddldlddlllddldddd, [5mC] at 1, 2, 3, backbone not given here; further chemistry not fully specified) [compound 12823]”, the “Average duplex melting temp.” value turned out to be 74.8 °C.
